According to patent US5416076A, “S-adenosyl methionine decarboxylase inhibitors” (Merrell Dow Pharmaceuticals Inc., priority 1989, dated 1995):

Tested on: Trypanosoma brucei
Experiment: Treatment of Trypanosoma Brucei-infected mice
Format: in vivo, T. brucei (EATRO 110) in mice (CD-1, males)
Conditions: for Mice cured/Total: cured = surviving 30 days after all controls dead
Description: Illustrative of the effects of a compound of this invention (i.e., cis-5'-deoxy-5'-(4-amino-2-butenyl )methylaminoadenosine, identified below as MDL Compound) for the treatment of African Trypanosomiasis is an assay using Trypanosoma brucei-infected mice, as follows:
(a) includes those animals that died.
(b) MDL Compound was given intraperitoneally three times per day (8:30
a.m., 12:30 p.m. and 4:30 p.m,) for three consecutive days.
(c) Eflornithine was given in drinking water for three days.
Mice (20-22 g, CD-1, males) were infected with 2.5×10^5 T. brucei (EATRO 110) by intraperitoneal injection. Drug treatment commenced 24 h after infection. Mice surviving for 30 days after all controls were dead were considered cured. This method for drug testing is that of Bacchi et al. (1980) Science 210: 332-334, and successfully predicted the utility of eflornithine in human trypanosomiasis.

SMILES | Mice cured/Total (2% in drinking water for three days) | Mice cured/Total (dose 10 (unit not given), intraperitoneally three times per day for three consecutive days) | Mice cured/Total (dose 20 (unit not given), intraperitoneally three times per day for three consecutive days) | Mice cured/Total (dose 50 (unit not given), intraperitoneally three times per day for three consecutive days) | Days of Survival (includes those animals that died) (dose 50 (unit not given), intraperitoneally three times per day for three consecutive days, per animal) [days]
NCCCC(N)(C(=O)O)C(F)F (centres unmarked) [Eflornithine, reference compound] | 3/5 |  |  |  | 
CN(C/C=C\CN)C[C@H]1O[C@@H](n2cnc3c(N)ncnc32)[C@H](O)[C@@H]1O [MDL Compound, CIS-5'-DEOXY-5'(4-AMINO-2-BUTENYL)METHYLAMINOADENOSINE] |  | 2/5 | 3/5 | 4/5 | 12
